We go through three compounds from ChEMBL document CHEMBL5034035, “Discovery of an Oxycyclohexyl Acid Lysophosphatidic Acid Receptor 1 (LPA1) Antagonist BMS-986278 for the Treatment of Pulmonary Fibrotic Diseases” (J Med Chem, 2021).

SMILES strings stand for the structures.

Data set [1] can be described thus: Protein binding in CD-1 mouse plasma assessed as free fraction at 3 mg/kg, po or 1 mg/kg, iv measured up to 24 hrs by LC-MS/MS analysis. It counts as ADME, organism-based.
Another data set addresses Cytochrome P450 2D6 (Homo sapiens, UniProt P10635). The data set is described as follows: Inhibition of CYP2D6 (unknown origin). It is filed as ADME.
Another data set addresses Cytochrome P450 2C9 (Homo sapiens, UniProt P11712). The data set is described as follows: Inhibition of CYP2C9 (unknown origin). It counts as ADME.
In another data set the target is T1, Cytochrome P450 2B6 (Homo sapiens, UniProt P20813).
T1 sequence (P20813 whole entry): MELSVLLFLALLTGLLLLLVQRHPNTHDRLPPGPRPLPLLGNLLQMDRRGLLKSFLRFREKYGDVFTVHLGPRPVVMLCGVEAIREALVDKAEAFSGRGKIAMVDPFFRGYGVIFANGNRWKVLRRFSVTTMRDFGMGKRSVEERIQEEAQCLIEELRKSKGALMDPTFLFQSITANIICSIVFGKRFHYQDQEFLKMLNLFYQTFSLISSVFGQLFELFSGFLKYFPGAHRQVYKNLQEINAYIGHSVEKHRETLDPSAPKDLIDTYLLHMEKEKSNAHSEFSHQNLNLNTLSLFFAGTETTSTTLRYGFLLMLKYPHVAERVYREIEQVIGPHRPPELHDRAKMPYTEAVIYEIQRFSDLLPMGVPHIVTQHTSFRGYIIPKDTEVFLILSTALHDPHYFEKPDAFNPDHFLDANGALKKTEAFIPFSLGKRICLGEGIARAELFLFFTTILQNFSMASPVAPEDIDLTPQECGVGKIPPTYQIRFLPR
The data set is described as follows: Inhibition of CYP2B6 (unknown origin). It counts as ADME.

The target in data set [2] is T2, Solute carrier organic anion transporter family member 1B3 (Homo sapiens, UniProt Q9NPD5).
T2 sequence (Q9NPD5 whole entry): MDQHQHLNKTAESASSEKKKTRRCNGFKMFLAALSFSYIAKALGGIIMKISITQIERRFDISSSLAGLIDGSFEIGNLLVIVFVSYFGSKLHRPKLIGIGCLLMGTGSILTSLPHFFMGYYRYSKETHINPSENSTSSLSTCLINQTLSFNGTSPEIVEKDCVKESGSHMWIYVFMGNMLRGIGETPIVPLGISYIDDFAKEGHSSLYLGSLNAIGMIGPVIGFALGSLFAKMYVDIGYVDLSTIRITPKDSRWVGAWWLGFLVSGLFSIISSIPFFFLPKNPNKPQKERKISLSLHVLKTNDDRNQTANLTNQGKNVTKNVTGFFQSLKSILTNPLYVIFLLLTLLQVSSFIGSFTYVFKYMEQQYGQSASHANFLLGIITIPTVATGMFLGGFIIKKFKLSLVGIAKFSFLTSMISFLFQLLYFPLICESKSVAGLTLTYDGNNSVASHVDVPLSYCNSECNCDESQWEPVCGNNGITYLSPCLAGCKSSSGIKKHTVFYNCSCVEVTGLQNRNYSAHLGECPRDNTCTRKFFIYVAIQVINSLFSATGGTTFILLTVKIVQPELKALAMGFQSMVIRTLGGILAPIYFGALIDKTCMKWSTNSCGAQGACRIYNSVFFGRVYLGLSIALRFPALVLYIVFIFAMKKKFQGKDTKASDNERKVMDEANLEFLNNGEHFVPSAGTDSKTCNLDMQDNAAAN
In words: Inhibition of OATP1B3 (unknown origin). It counts as ADME.

Data set [3] can be described thus: Half life in rat liver microsomes at 10 uM measured after 120 mins. It counts as ADME, Microsome.
In data set [4] the target is T3, Solute carrier organic anion transporter family member 1B1 (Homo sapiens, UniProt Q9Y6L6).
T3 sequence (Q9Y6L6 whole entry): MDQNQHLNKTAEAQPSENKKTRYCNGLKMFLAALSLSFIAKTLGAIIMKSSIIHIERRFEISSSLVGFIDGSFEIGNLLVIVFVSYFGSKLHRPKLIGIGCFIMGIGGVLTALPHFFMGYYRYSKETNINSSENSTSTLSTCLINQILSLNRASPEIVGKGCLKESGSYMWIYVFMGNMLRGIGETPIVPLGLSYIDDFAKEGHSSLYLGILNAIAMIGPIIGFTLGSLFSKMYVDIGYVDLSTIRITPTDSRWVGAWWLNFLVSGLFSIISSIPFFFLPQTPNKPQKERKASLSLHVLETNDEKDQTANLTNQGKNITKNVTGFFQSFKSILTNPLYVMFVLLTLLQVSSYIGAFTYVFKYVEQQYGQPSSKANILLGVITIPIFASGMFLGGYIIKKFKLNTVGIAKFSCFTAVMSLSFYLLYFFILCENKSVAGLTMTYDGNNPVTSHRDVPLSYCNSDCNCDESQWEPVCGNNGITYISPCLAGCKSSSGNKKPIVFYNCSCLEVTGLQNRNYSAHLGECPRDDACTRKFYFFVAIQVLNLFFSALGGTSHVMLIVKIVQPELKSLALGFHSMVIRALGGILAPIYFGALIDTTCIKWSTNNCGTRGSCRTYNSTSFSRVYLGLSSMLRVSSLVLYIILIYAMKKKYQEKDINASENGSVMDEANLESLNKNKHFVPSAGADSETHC
The data set is described as follows: Inhibition of OATP1B1 (unknown origin). It counts as ADME.

Data set [5] addresses ATP-binding cassette sub-family C member 3 (Homo sapiens, UniProt O15438). In words: Inhibition of MRP3 (unknown origin).
The target in another data set is Bile salt export pump (Homo sapiens, UniProt O95342). The data set is described as follows: Inhibition of BSEP (unknown origin). It counts as ADME.
Bile salt export pump, sequence (O95342 whole entry): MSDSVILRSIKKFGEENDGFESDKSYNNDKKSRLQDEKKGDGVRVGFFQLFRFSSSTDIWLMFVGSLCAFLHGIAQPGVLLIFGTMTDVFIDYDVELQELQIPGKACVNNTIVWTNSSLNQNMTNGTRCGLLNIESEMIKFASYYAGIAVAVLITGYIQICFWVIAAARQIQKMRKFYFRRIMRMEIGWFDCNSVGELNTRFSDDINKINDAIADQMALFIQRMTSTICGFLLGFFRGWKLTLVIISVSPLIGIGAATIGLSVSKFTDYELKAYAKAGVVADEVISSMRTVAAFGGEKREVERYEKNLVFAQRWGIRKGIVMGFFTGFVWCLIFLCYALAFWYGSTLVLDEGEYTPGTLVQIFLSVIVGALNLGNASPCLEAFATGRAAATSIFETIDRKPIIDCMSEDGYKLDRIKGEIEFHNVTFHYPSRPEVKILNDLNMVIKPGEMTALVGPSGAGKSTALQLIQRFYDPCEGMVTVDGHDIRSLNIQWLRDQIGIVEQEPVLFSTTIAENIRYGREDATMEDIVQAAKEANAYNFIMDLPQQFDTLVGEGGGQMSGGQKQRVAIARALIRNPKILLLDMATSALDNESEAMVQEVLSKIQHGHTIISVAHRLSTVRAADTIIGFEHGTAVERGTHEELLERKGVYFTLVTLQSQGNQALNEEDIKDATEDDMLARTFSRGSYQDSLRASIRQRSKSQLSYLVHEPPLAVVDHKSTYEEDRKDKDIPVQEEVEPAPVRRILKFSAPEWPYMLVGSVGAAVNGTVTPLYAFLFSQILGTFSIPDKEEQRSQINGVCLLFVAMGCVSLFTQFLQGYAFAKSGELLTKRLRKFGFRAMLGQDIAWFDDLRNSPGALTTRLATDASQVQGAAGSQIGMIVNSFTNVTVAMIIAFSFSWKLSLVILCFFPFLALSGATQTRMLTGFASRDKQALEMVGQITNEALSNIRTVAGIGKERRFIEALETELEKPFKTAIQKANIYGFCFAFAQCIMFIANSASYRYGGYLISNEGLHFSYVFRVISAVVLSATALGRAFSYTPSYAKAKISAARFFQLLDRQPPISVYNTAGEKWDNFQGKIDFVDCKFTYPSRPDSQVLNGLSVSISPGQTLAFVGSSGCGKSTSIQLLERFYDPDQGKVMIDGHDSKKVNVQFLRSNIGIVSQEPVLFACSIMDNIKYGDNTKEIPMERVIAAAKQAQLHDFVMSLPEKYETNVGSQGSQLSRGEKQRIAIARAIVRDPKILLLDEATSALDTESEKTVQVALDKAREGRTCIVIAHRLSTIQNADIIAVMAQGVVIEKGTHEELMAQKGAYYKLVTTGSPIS
Data set [6] in a line: Protein binding in Sprague-Dawley rat plasma assessed as free fraction at 3 mg/kg, po or 1 mg/kg, iv measured up to 24 hrs by LC-MS/MS analysis. It is filed as ADME, organism-based.
Data set [7] is described as follows: Half life in human liver microsomes at 10 uM measured after 120 mins. It counts as ADME, Microsome. A general note: Liver microsomes are a subcellular fraction often used to study metabolism.
The next data set has as its target T4, Cytochrome P450 2C8 (Homo sapiens, UniProt P10632).
T4 sequence (P10632 whole entry): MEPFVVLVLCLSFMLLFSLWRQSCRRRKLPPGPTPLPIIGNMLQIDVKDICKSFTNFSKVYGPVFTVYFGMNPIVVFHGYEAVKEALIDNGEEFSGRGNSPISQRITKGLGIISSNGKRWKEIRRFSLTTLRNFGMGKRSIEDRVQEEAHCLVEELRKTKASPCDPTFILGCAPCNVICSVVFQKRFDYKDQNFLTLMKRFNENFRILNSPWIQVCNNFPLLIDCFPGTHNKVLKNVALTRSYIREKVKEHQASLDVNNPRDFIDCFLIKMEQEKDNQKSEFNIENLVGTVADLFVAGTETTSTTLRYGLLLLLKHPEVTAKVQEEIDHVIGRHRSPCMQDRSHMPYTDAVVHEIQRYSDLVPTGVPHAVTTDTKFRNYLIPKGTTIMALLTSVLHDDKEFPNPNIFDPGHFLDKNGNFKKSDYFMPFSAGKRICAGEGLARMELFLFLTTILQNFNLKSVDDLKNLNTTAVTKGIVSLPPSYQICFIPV
In words: Inhibition of CYP2C8 (unknown origin). It is filed as ADME.

The next data set has as its target Cytochrome P450 3A4 (Homo sapiens, UniProt P08684). The data set is described as follows: Inhibition of CYP3A4 (unknown origin). It is filed as ADME.

Cytochrome P450 2D6, sequence (P10635 whole entry): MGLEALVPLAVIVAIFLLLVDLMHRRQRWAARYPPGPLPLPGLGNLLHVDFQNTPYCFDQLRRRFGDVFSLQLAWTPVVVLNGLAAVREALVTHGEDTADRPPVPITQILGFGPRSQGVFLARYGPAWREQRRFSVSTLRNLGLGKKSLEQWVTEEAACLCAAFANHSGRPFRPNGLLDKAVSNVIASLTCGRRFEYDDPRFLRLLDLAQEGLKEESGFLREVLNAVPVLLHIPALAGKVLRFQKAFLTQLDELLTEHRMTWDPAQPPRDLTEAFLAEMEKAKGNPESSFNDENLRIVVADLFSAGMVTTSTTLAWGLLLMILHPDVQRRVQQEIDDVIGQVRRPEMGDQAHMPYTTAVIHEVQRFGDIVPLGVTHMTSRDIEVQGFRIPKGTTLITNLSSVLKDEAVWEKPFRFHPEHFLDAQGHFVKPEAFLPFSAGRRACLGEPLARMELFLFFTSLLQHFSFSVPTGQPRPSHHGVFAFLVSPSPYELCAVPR
ATP-binding cassette sub-family C member 3, sequence (O15438 whole entry): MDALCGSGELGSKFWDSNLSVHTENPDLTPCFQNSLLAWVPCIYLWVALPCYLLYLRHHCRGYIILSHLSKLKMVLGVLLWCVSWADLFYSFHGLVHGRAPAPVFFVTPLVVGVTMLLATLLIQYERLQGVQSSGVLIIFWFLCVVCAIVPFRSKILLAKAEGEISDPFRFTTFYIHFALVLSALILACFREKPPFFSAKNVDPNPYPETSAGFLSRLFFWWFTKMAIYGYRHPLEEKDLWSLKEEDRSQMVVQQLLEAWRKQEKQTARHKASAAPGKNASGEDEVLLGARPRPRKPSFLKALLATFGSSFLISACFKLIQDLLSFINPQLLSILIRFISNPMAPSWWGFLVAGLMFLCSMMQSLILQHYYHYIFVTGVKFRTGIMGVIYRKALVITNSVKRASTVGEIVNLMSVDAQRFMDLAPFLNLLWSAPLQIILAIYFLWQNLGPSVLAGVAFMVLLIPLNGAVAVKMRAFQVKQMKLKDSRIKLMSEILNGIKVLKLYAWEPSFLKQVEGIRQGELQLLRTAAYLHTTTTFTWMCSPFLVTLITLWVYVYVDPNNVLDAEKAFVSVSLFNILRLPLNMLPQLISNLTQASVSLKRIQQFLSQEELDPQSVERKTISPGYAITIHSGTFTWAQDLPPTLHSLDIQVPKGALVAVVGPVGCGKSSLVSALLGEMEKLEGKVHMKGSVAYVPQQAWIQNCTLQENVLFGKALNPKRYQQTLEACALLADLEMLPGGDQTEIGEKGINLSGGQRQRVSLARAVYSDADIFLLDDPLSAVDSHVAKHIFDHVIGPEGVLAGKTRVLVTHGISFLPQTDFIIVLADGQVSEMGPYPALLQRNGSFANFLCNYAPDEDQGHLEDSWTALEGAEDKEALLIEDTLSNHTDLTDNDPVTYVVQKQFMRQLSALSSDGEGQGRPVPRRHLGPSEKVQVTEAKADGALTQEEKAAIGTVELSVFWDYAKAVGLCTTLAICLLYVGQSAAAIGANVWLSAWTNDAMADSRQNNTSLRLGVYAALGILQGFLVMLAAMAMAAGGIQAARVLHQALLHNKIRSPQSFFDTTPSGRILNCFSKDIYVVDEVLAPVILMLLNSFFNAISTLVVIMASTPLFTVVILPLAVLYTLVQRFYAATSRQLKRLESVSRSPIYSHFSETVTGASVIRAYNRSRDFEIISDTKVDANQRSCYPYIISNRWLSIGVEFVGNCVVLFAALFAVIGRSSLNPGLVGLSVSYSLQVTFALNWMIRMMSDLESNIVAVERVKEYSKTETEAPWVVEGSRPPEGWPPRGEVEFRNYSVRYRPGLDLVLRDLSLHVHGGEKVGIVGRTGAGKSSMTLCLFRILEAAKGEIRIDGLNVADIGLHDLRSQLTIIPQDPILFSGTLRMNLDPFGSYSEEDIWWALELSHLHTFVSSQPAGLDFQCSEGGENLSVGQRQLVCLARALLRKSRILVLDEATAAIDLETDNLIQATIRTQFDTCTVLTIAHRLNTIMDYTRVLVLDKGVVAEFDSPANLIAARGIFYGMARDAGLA
Cytochrome P450 2C9, sequence (P11712 whole entry): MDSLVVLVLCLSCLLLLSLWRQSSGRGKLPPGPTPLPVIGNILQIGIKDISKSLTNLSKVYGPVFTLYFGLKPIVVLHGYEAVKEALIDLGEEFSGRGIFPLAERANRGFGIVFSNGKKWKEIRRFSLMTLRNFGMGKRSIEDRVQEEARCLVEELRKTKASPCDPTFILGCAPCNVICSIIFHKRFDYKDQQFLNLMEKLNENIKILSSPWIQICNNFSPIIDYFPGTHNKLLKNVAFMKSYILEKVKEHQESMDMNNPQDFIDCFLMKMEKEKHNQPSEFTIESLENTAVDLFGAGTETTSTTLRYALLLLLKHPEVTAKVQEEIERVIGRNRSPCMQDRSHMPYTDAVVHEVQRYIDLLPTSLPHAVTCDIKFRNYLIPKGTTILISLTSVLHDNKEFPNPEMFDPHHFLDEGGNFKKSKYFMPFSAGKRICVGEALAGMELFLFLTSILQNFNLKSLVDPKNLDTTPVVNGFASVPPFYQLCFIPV
Cytochrome P450 3A4, sequence (P08684 whole entry): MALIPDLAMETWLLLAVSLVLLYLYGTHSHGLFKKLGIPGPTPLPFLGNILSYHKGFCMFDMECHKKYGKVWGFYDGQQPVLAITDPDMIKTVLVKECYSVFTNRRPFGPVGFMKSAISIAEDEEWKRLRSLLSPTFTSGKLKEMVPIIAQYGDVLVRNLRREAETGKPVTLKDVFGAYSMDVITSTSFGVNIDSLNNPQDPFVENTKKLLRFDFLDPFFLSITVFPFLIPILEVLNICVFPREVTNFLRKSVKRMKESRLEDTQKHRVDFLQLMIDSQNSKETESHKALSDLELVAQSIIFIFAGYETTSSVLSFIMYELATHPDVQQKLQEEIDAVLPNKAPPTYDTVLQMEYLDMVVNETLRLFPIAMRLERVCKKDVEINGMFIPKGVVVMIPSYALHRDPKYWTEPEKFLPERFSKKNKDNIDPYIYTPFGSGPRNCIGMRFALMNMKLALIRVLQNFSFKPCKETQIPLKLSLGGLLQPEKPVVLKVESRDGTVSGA

For the compound `Cc1nc(-c2nnn(C)c2COC(=O)N(C)CC2CCC2)ccc1O[C@H]1CCC[C@H](C(=O)O)C1`, the fraction unbound at 24 h turned out to be 0.1 in data set [1] and 0.053 in [6]. Further, the half-maximal inhibitory concentration (IC50) is > 40 µM against Cytochrome P450 2D6; > 40 µM on Cytochrome P450 2C9; > 40 µM on Cytochrome P450 2B6; 2.6 µM in data set [2]; 1.5 µM in [4]; 24 µM in [5]. Besides, the values for the IC50 on Bile salt export pump, at Cytochrome P450 2C8 and on Cytochrome P450 3A4 were 19.6 µM, > 40 µM and > 40 µM, respectively. Moreover, the half-life at 10 µM in data set [3] and in data set [7] was > 2 h throughout.

With `CCCN(C)C(=O)OCc1c(-c2ccc(O[C@H]3CCC[C@H](C(=O)O)C3)c(C)n2)nnn1C` [ADMILPARANT], the results for the unbound share (fraction unbound) at 24 h in [1] and in data set [6] were 0.314 and 0.126, respectively. Moreover, the IC50 is > 40 µM against Cytochrome P450 2D6; > 40 µM at Cytochrome P450 2C9; > 40 µM on Cytochrome P450 2B6; 10 µM in data set [2]; 36 µM in data set [4]; 66 µM in data set [5]. The IC50 was > 100 µM on Bile salt export pump, > 40 µM against Cytochrome P450 2C8 and > 40 µM against Cytochrome P450 3A4. Moreover, the half-life at 10 µM in [3] and in [7] was > 2 h each time.

Turning to `Cc1noc(-c2ccc(-c3ccc(C4(C(=O)O)CC4)cc3)cc2)c1NC(=O)O[C@H](C)c1ccccc1` [BMS-986020], the results for the fraction unbound at 24 h in data set [1] and in data set [6] were 0.006 and 0.002, respectively. Also, the half-maximal inhibitory concentration (IC50) at Cytochrome P450 2D6 is > 50 µM; against Cytochrome P450 2C9, 5.5 µM; at Cytochrome P450 2B6, > 50 µM; in data set [2], 0.57 µM; in data set [4], 0.17 µM; in [5], 22 µM. Besides, the results for the 50% inhibitory concentration (IC50) on Bile salt export pump, against Cytochrome P450 2C8 and at Cytochrome P450 3A4 were 4.8 µM, 3.5 µM and > 50 µM, respectively. The half-life at 10 µM worked out at 1.27 h in data set [3] and 1.38 h in data set [7].

As a reminder, the fraction unbound is the share of the substance not bound to proteins or other matrix. In general, IC50 refers to the concentration needed to halve the response being measured. One may read the half-life as the time in which the quantity being followed falls by half. High values mean slow decline, low ones rapid decline.
